Data on one molecule can be found in patent US20170217982A1, “Compound isolated from Pseudolysimachion rotundum var. subintegrum, the composition comprising the same for treating allergic disease, inflammatory disease, asthma or chronic obstructive pulmonary disease and the use thereof” (YUNGJIN PHARMACEUTICAL CO., LTD, priority 2014, published 2017).

For one experiment, the system named is NF-kappa B. Nature of the experiment: NF-kappa B luciferase reporter assay in H292 cells. To be noted: 10 μm, TNF-alpha 20 ng/ml. It is filed as cell-based, human. How it is done: NF-kappa B luciferase reporter assay was performed by following procedure disclosed in the literature (Pulin Che et al., Assay Drug Dev. Technol., 2012, 10, 61-68).
In order to establish the stable cells for NF-kappa B luciferase reporter assay, NF-kappa B response element was cloned into vector (pGL4.32 vector, E849A, Promega) according to the manufacture's protocol and infected to the cell (H292 cells, CRL-1848, ATCC) using by Lipofectamine 2000 (11668-019, Invitrogen). The infected cell was selected using by hygromycin (400 μg/ml) for 2 weeks and the colonies were individually cloned and proliferated. […] The test sample was pre-treated in a pre-determined concentration and 20 ng/ml of TNF-alpha was treated therewith for 12 hours. The activity of luciferase enzyme was determined by E6110 kit (OneGlo Luciferase Assay kit, Promega) and DMSO was used as a vehicle control.
The stably expressed H292 cells, a […] human bronchial epithelium cell, with luciferase reporter vector pGL4.32 (luc2P/NF-KB-RE/Hygro, Promega Company) were established prior to following experiment. […] The activation degree of luciferase was determined by One-glow Luciferase Assay system (Promega Company). […] The luminescence was determined by Microplate Luminometer LB 96V (EG&G Berthold company) for 0.5 sec and the result was shown in Table 5 and FIG. 3.

Experiment [1] has as its system asthma-induced animal model (OVA). Nature of the experiment: Anti-asthma activity in OVA-sensitized/challenged mouse model. Type of experiment: in vivo, BALB/c mice. The following applies: OVA asthma mice. How it is done: In order to determine the anti-asthma activity of test sample in asthma-induced animal model, following test was performed by the method disclosed in the literature (Shin, I. S. et al., Food Chem. Toxicol., 2013, 62, 506-513)
Specific pathogen-free female BALB/c mice (about 20 g), aged 6 weeks, which were routinely screened serologically for relevant respiratory pathogens, were purchased from Samtako Co. (Seoul, Korea) and acclimated with the experimental environment under the condition controlling the temperature of 22±2° C., and relative humidity of 55±15%, at light/dark cycle for 1 week prior to experiment.
Briefly, mice were sensitized by intraperitoneal injection of 20 μg OVA (Ovalbumin; A5503, Sigma, St. Louis, Mo.), which was emulsified in 2 mg aluminum hydroxide (A8222, Sigma-Aldrich, MO. USA) in 200 μl of PBS buffer (pH 7.4), biweekly. The mice were challenged through the airways with OVA (1% in PBS) for 30 min using an ultrasonic nebulizer (NE-U12; Omron Corp., Tokyo, Japan) from the 21st day to 23rd day after the initial sensitization. 24 hrs after the antigen treatment, the airway hyperresponsiveness was determined and the mice were sacrificed 48 hrs after the last challenge. The mice were sacrificed with an overdose of pentobarbital (50 mg/kg, Entobal®, Hanil, Korea) 48 h after the last challenge, and a tracheotomy was performed. After 1.4 ml of physiological saline solution (PBS) was instilled into the lungs, bronchoalveolar lavage fluid (BALF) was obtained by aspiration three times via tracheal cannulation.
The groups were divided into several groups, i.e., (a) normal control group(NC): the groups treated or not-treated with OVA; (b) asthma-induced group(OVA): the groups treated with OVA to induce asthma; and (c) comparative group: the groups treated with positive control group (M30, montelukast; 30 mg/kg, PO, Sigma-Aldrich Co. Ltd., SML-0101+OVA) and (d) test sample group: the groups treated with KS534 compound (30 mg/kg, PO, Sigma-Aldrich Co. Ltd., SML-0101+OVA).
The test group consists of 7 mice for each group and various concentrations of the test sample were orally administrated to the mice from 21st to 23rd day after ^1st OVA treatment.
All the result obtained from various experiments was recorded as mean±SD (standard deviation), and the comparison between each group was determined using by one-way ANOVA test using by SPSS 10.0 program. The statistic significance between each group was determined according to Dunnett's multiple comparison tests as a post-hoc test). The result was expressed as P values: <0.05 (*) as statistically significant. […]
BALF was loaded onto a slide and centrifuged to fix the cells onto the slide using a Cellspin machine (Cyto12.5+clip5, Hanil Science Industrial, Korea). The cells were stained by Diff-Quick® Stain reagents (Sysmex, Cat No. 38721, Switzerland) according to the manufacturer's instructions and the number of inflammatory cells in each sample was counted by microscope (×400).
In order to confirm the inhibition effect of test samples on the level of Th2 cytokines (IL-4, IL-5 and IL-13) in bronchoalveolar lavage fluid (BALF), the level of Th2 cytokines (IL-4, IL-5 and IL-13) in bronchoalveolar lavage fluid (BALF) was determined using by ELISA kit (VersaMax, Molecular Devices, USA) specifically reacting with each cytokine according to the manufacture's manual. […]

Where “and” joins values, the source holds several entries; their conditions need not be identical. Identical values can stand only once.

For the molecule `O=C(CO)O[C@@H]1O[C@@H]2C[C@H]3[C@H](OC(=O)c4ccc(O)c(O)c4)[C@@H](Cl)[C@@](O)(CO2)[C@@H]13` [KS-534, (3R,5S,5aS,6R,7S,8R,8aS)-8-chloro-8a-hydroxy-5-(2-hydroxyacetoxy) hexahydro-1H-3,6-methanocyclopenta[e][1,3]dioxepin-7-yl3,4-dihydroxybenzoate], in the experiment on NF-kappa B, the “Inhibitory ratio (%) of NF-kappa B activity” value is given as 36.65%; the “NF-kappa B activity (relative % comparing with TNF-alpha treatment group)” value was 63.35% and 63.35 ± 6.18%. Further, the “level of Th2 cytokines (IL-4, IL-5 and IL-13) in BALF” value in experiment [1] (30 mg/kg PO, ELISA, vs OVA group (FIG. 6)) is given as “significantly reduced”. For the same molecule, in experiment [1] (30 mg/kg PO, ELISA, vs OVA group (FIG. 7)), the “level of IgE and OVA-specific IgE in blood serum” value is recorded as “significantly reduced”. Further, the “invasion of the inflamed cells in lung tissue (H&E histology)” value in experiment [1] (30 mg/kg PO, vs OVA group (FIG. 8)) was “significantly reduced”. Further, in experiment [1] (30 mg/kg PO, vs OVA group (FIG. 9)), the “mucosal secretion from the goblet cell of bronchial epithelial cells in lung tissue (PAS)” value was “significantly reduced”. The “total number of eosinophil and inflammatory cells in BALF” value in experiment [1] (oral, vs OVA group (FIG. 5)) was “effectively inhibited”.
